# Experimental data published in patent US20260325464A1, “COMPOSITIONS FOR MODULATING THE EXPRESSION OF AQUAPORINS IN NEURODEGENERATIVE DISORDERS” (priority 2023, published 2026).
# Like-named read-outs stand apart in the source and are kept apart here. Marks after values point to notes of the source that are not given here.
# Legend:
# [1] = test system: Alzheimer's disease; experiment: Elevated plus maze (EPM) test in rats with AlCl3-induced Alzheimer's disease; format: in vivo, rat; conditions: for EPM at 16th day Transfer Latency / EPM at 17th day Transfer Latency: p.o. + AlCl3 (100 mg/kg, i.p.), Mean ± SEM, n = 6
# Experimental: Elevated plus maze (EPM)—Elevated plus maze (EPM)—This test was performed as per reported protocol (Bhuvanendran et al., Amelioration of cognitive deficit by Embelin in a Scopolamine-induced Alzheimer's disease-like condition in a rat model. Front Pharmacol. 2018:9(6):1-12 and Biradar et al., (2020) Experimental validation and network pharmacology evaluation to decipher the mechanism of action of Erythrina variegata L. bark against scopolamine-induced memory impairment in rats. Adv Tradit Med. 2020:26:1-4). EPM contains 2 closed and 2 open arms (four arms; equal dimensions of 50×10 cm). These 4 arms connect at central with a 10×10 cm square gap as an initial point. The transfer latency (TL) was recorded via stopwatch by keeping rats independently toward one side of the open arm. The EPM TL cut-off was set to 60 s throughout the study. […] Index of memory improvement is measured as a drop of transfer Latency (TL) by test drug.
# The elevated plus maze is a test that is widely used to assess the anti-anxiety effects of test substances. As the test measures open arm activity, an increase in open arm activity (duration and/or entries) reflects anti-anxiety behaviour (Walf et al., The use of the elevated plus maze as an assay of anxiety-related behavior in rodents, Nat Protoc. 2007; 2(2): 322-328). In the present study, inducing Alzheimer's in the animals increased their anxiety which was reduced by the administration on Gingerenone A (Table 3).
# [2] = test system: Parkinson's disease; experiment: Catalepsy test in rats with reserpine-induced Parkinson's disease; format: in vivo, rat; parameters: catalepsy score at 30 min / catalepsy score at 60 min / catalepsy score at 120 min: unit not given here; conditions: for catalepsy score at 30 min / catalepsy score at 60 min / catalepsy score at 120 min: p.o. + Reserpine (4 mg/kg, s.c.), Mean ± SEM, n = 6
# From the text: (§1) The induction of Parkinson's disease and measurement of other parameters were done as per the reported protocol (Santos et al., Cognitive, motor and tyrosine hydroxylase temporal impairment in a model of parkinsonism induced by reserpine. Behav Brain Res. 2013; 253:68-77 and Shishehbore et al. A novel kinetic spectrophotometric method for the determination of dopamine in biological and pharmaceutical samples. J Chem. 2013; 2013:1-6). Induction of Parkinson's disease was done by administering Resperine, which inhibits the monoamine vesicular transporters, thus decreasing the levels of monoamine neurotransmitters in the brain. Following pretreatment for 14 days with Gingerenone A, the rat groups received subcutaneous injections of reserpine (4 mg/kg) for the final five days of the treatment regimen. Resperine (5 mg) was dissolved in 1 ml of 1% acetic acid and then diluted tenfold with distilled water to achieve a final concentration of 500 μg/ml. The normal control group received saline with 1% acetic acid […], administered from day 10 to day 14. Thirty minutes following the administration of reserpine on the 14th day, behavioural assessments were conducted using the Open Field test, Y Maze, and Catalepsy tests to evaluate changes. Rats administered with Carbidopa, a known drug for the management of Parkinson's disease was also used for comparison. Upon completion of the study, brains were harvested for biochemical analyses and histopathological studies. The experimental group is depicted in table 10.
# NeuroMol Med. 202022(2):314-330. Catalepsy in rats' manifests as an unresponsiveness to external stimuli accompanied by muscle rigidity. During the catalepsy test, rats were positioned on a wooden bar elevated 3-9 cm above the surface, with their forelimbs resting on it after administration of reserpine. The time taken for the rats to correct their posture was recorded as an indicator of catalepsy. Catalepsy ceased either when the rats climbed up the bar or when their forelimbs touched the floor. Observations were made at 30, 60, and 120 minutes after administration. All assessments were conducted in a quiet environment at a temperature of 23-25 degrees Celsius, with a maximum observation time of 5 minutes per trial.
# [3] = test system: Parkinson's disease; experiment: Open field test in rats with reserpine-induced Parkinson's disease; format: in vivo, rat; conditions: for Freezing / Number of central explorations / Number of squares crossed: p.o. + Reserpine (4 mg/kg, s.c.), open field, Mean ± SEM, n = 6
# From the text: as §1
# Open filed test—The test was conducted as per protocol described by Saleem et al., Pharmacological Potential of the Standardized Methanolic Extract of Prunus armeniaca L. in the Haloperidol-Induced Parkinsonism Rat Model. Evid Based Complement Alternat Med. 2022:29; 3697522. doi: 10.1155/2022/3697522. This test was conducted to assess the locomotor and exploratory behaviors of the experimental rats. A square-shaped wooden box measuring 100 cm in width, 100 cm in […], and 45 cm in height was constructed using plywood material, painted white, with a black-lined floor divided into 25 blocks. The rats were placed in the center of the field for a duration of 5 minutes and allowed to explore the box freely. The number of squares crossed, both centrally and horizontally, along with the total number of crossings, instances of defecation, freezing behavior, and postures were recorded during this period. Normal animals readily and quickly acclimate to the chamber and try to explore the center area of the squares.
# [4] = test system: frontal cortex and hippocampus; experiment: Brain histopathology (H&E), AlCl3 Alzheimer's model; format: in vivo, rat; conditions: 5 mg/kg, 10 mg/kg and 20 mg/kg
# From the text: The brain histopathology was done for all the experimental groups. The brain tissue was fixed in 10% buffered neutral formalin solution. The tissue was embedded in paraffin, sectioned at […] stained with hematoxylin and eosin (H&E). The sections were examined under light microscope to study the architecture of the brain tissue, and then photomicrographs were taken (Fischer A H, Jacobson K A, Rose J, Zeller R. Hematoxylin and eosin staining of tissue and cell sections. CSH Protoc. 2008:1;pdb.prot4986. doi: 10.1101/pdb.prot4986).
# [5] = test system: acetylcholinesterase (AChE); conditions: for Ach E: p.o. + AlCl3 (100 mg/kg, i.p.), brain homogenate, Mean ± SEM, n = 6
# Experimental: At the conclusion of the study, the rats were euthanized by decapitation, and their brains were swiftly removed and placed in ice-cold saline solution. The cortex and hippocampus were carefully isolated and submerged in an ice-cold water container to halt enzymatic reactions. The levels of acetylcholinesterase (AChE) and butyrylcholinesterase (BChE) in the cortex and hippocampus regions of the brain were determined using Ellman's method from 1961. Approximately 100 mg of the isolated brain sections were weighed and homogenized in phosphate buffer (0.1 M, pH 8.0). To 0.4 mL of the homogenate, the following components were added: 2.6 mL of phosphate buffer (0.1 M, pH 8.0), 100 μL of 10 mM 5,5-dithio-bis-(2-nitrobenzoic acid) (DTNB), and 20 μL of acetylthiocholine iodide (AChI) solution (0.075 M). The mixture was thoroughly mixed. The absorbance was then measured at 412 nm for a duration of 5 minutes.
# n=6, All the values were expressed in Mean±SEM (n=6). The statistical analysis was carried out using one way ANOVA.
smiles,measurement,setting,value
COc1cc(CC/C=C/C(=O)CCc2ccc(O)c(OC)c2)ccc1O [Gingerenone A],EPM at 16th day Transfer Latency,[1]; 5 mg/kg,25.70 ± 0.88 s
same,EPM at 17th day Transfer Latency,[1]; 5 mg/kg,25.21 ± 1.04 s
same,EPM at 16th day Transfer Latency,[1]; 10 mg/kg,21.76 ± 1.03 s
same,EPM at 17th day Transfer Latency,[1]; 10 mg/kg,19.37 ± 0.47 s
same,EPM at 16th day Transfer Latency,[1]; 20 mg/kg,19.38 ± 0.87 s
same,EPM at 17th day Transfer Latency,[1]; 20 mg/kg,18.59 ± 0.86 s
same,anxiety in EPM (in words),"[1]; AlCl3 model, Table 3",reduced
same,catalepsy score at 30 min,[2]; 5 mg/kg,2.46 ± 0.15
same,catalepsy score at 60 min,[2]; 5 mg/kg,2.52 ± 0.54
same,catalepsy score at 120 min,[2]; 5 mg/kg,2.43 ± 0.70
same,catalepsy score at 30 min,[2]; 10 mg/kg,1.76 ± 0.11
same,catalepsy score at 60 min,[2]; 10 mg/kg,1.72 ± 0.73
same,catalepsy score at 120 min,[2]; 10 mg/kg,1.71 ± 0.75
same,catalepsy score at 30 min,[2]; 20 mg/kg,1.58 ± 0.16
same,catalepsy score at 60 min,[2]; 20 mg/kg,1.55 ± 0.32
same,catalepsy score at 120 min,[2]; 20 mg/kg,1.50 ± 0.82
same,muscle rigidity in catalepsy test (in words),"[2]; reserpine model, Table 13",significantly improved muscle rigidity
same,Freezing,[3]; 5 mg/kg,15.29 ± 0.35 s
same,Number of central explorations,[3]; 5 mg/kg,12.57 ± 1.05
same,Number of squares crossed,[3]; 5 mg/kg,21.62 ± 2.47
same,Freezing,[3]; 10 mg/kg,10.38 ± 0.62 s
same,Number of central explorations,[3]; 10 mg/kg,17.34 ± 1.20
same,Number of squares crossed,[3]; 10 mg/kg,27.45 ± 2.06
same,Freezing,[3]; 20 mg/kg,9.02 ± 0.45 s
same,Number of central explorations,[3]; 20 mg/kg,17.27 ± 0.98
same,Number of squares crossed,[3]; 20 mg/kg,26.26 ± 2.27
same,locomotory and exploratory behaviors (in words),"[3]; reserpine model, Table 11",significantly improved the behavior
same,histopathology of frontal cortex,"[4]; FIG. 5A, 6A, 7A","intact pyramidal cells having round to oval vesicular nucleus with abundant cytoplasm, neuroglial cells, granular cells and intact blood vessels with degenerated cells [mild to moderate] with dystrophic changes having shrunken and hyperchromatic nuclei and without inflammation"
same,"histopathology of hippocampus (CA1, CA2, CA3)","[4]; FIG. 5B-D, 6B-D, 7B-D",intact architecture consisting of Cornu Ammonis [CA] and dentate gyrus with compact layers of pyramidal cells having vesicular nuclei and moderate cytoplasm without shrinkage and necrosis
same,Ach E,[5]; 5 mg/kg,11.76 ± 0.93 10^−6 /mol/g of tissue
same,Ach E,[5]; 10 mg/kg,8.77 ± 0.49** 10^−6 /mol/g of tissue
same,Ach E,[5]; 20 mg/kg,6.87 ± 0.34** 10^−6 /mol/g of tissue
same,Acetyl cholinesterase (in words),"[5]; AlCl3 model, Table 5",significantly inhibited Acetyl cholinesterase
